Laboratory results: PMC5218480 (PLoS ONE, 2017)

System: MV-4-11 cells
Experiment: Gene expression microarray analysis (Affymetrix PrimeView) and GSEA
Type: cell-based, human
Parameters: RFU PODN (11730768_x_at) / Fold change /veh PODN (11730768_x_at) / RFU LINC00158 (11744669_a_at) / Fold change /veh LINC00158 (11744669_a_at) / RFU DUSP10 (11751237_a_at) / Fold change /veh DUSP10 (11751237_a_at) / RFU ID3 (11757404_x_at) / Fold change /veh ID3 (11757404_x_at) / RFU PLEKHG5 (11737974_s_at) / Fold change /veh PLEKHG5 (11737974_s_at) / RFU LRRC4B (11730491_at) / Fold change /veh LRRC4B (11730491_at) / RFU GIMAP4 (11747438_a_at) / Fold change /veh GIMAP4 (11747438_a_at) / RFU KRT8 (11758183_x_at) / Fold change /veh KRT8 (11758183_x_at) / RFU CNN1 (11734310_a_at) / Fold change /veh CNN1 (11734310_a_at) / RFU VPS37D (11726825_at) / Fold change /veh VPS37D (11726825_at) / RFU C10orf10 (11716522_x_at) / Fold change /veh C10orf10 (11716522_x_at) / RFU KIR2DL2 /// KIR2DL4 /// KIR2DL5A /// KIR2DL5B /// KIR2DS1 /// KIR2DS2 /// KIR2DS3 /// KIR2DS4 /// KIR3DL3 /// KIR3DL3 /// KIR3DS1 (11738374_at) / Fold change /veh KIR2DL2 /// KIR2DL4 /// KIR2DL5A /// KIR2DL5B /// KIR2DS1 /// KIR2DS2 /// KIR2DS3 /// KIR2DS4 /// KIR3DL3 /// KIR3DL3 /// KIR3DS1 (11738374_at) / RFU C1QL1 (11718748_at) / Fold change /veh C1QL1 (11718748_at) / RFU TMPRSS4 (11747572_a_at) / Fold change /veh TMPRSS4 (11747572_a_at) / RFU HAMP (11756126_x_at) / Fold change /veh HAMP (11756126_x_at) / RFU RNFT2 (11725882_a_at) / Fold change /veh RNFT2 (11725882_a_at) / RFU NR4A2 (11747474_a_at) / Fold change /veh NR4A2 (11747474_a_at) / RFU ABCC12 (11746883_a_at) / Fold change /veh ABCC12 (11746883_a_at) / RFU TMEM136 (11760407_x_at) / Fold change /veh TMEM136 (11760407_x_at) / RFU CLDN22 /// WWC2 (11732394_at) / Fold change /veh CLDN22 /// WWC2 (11732394_at) / RFU HLA-DPB1 (11760878_x_at) / Fold change /veh HLA-DPB1 (11760878_x_at) / RFU SPINT1 (11716480_a_at) / Fold change /veh SPINT1 (11716480_a_at) / RFU GAP43 (11754022_s_at) / Fold change /veh GAP43 (11754022_s_at) / RFU A4GNT (11735810_at) / Fold change /veh A4GNT (11735810_at) / RFU PRB3 (11715151_x_at) / Fold change /veh PRB3 (11715151_x_at) / RFU TUBB4B (11761932_at) / Fold change /veh TUBB4B (11761932_at) / RFU CAPN14 (11732068_a_at) / Fold change /veh CAPN14 (11732068_a_at) / RFU TMCC2 (11721928_a_at) / Fold change /veh TMCC2 (11721928_a_at) / RFU IRGQ (11745062_a_at) / Fold change /veh IRGQ (11745062_a_at) / RFU FAM174B (11720279_a_at) / Fold change /veh FAM174B (11720279_a_at) / RFU TMPRSS4 (11748680_a_at) / Fold change /veh TMPRSS4 (11748680_a_at) / RFU FAM212B (11763350_a_at) / Fold change /veh FAM212B (11763350_a_at) / RFU PLEKHG5 (11743358_a_at) / Fold change /veh PLEKHG5 (11743358_a_at) / RFU ZSCAN30 (11745921_a_at) / Fold change /veh ZSCAN30 (11745921_a_at) / RFU CMKLR1 (11741424_a_at) / Fold change /veh CMKLR1 (11741424_a_at) / RFU LOC101060620 /// MAPK8IP1 (11723275_at) / Fold change /veh LOC101060620 /// MAPK8IP1 (11723275_at) / RFU SPTSSB (11747773_x_at) / Fold change /veh SPTSSB (11747773_x_at) / RFU PRSS12 (11739890_at) / Fold change /veh PRSS12 (11739890_at) / RFU BIN1 (11741810_x_at) / Fold change /veh BIN1 (11741810_x_at) / RFU WNT11 (11732464_a_at) / Fold change /veh WNT11 (11732464_a_at) / RFU C10orf10 (11716521_a_at) / Fold change /veh C10orf10 (11716521_a_at) / RFU C5orf56 (11738089_at) / Fold change /veh C5orf56 (11738089_at) / RFU CYB561 (11721691_x_at) / Fold change /veh CYB561 (11721691_x_at) / RFU ANKRD19P (11752326_a_at) / Fold change /veh ANKRD19P (11752326_a_at) / RFU OR2T12 /// OR2T33 /// OR2T8 (11738714_s_at) / Fold change /veh OR2T12 /// OR2T33 /// OR2T8 (11738714_s_at) / RFU VCAN (11748164_a_at) / Fold change /veh VCAN (11748164_a_at) / RFU JSRP1 (11732532_at) / Fold change /veh JSRP1 (11732532_at) / RFU KRTAP10-11 (11738290_x_at) / Fold change /veh KRTAP10-11 (11738290_x_at) / RFU MYO3A (11730013_a_at) / Fold change /veh MYO3A (11730013_a_at) / RFU EBF3 (11725865_a_at) / Fold change /veh EBF3 (11725865_a_at) / RFU CAMK2N1 (11719241_x_at) / Fold change /veh CAMK2N1 (11719241_x_at) / RFU C5orf56 (11738088_a_at) / Fold change /veh C5orf56 (11738088_a_at) / RFU OLFML3 (11715873_a_at) / Fold change /veh OLFML3 (11715873_a_at) / RFU LOC100653217 /// NTM (11731650_a_at) / Fold change /veh LOC100653217 /// NTM (11731650_a_at) / RFU MAPK11 (11762145_a_at) / Fold change /veh MAPK11 (11762145_a_at) / RFU FIZ1 (11724087_x_at) / Fold change /veh FIZ1 (11724087_x_at) / RFU OASL (11726364_x_at) / Fold change /veh OASL (11726364_x_at) / RFU SOX15 (11748057_x_at) / Fold change /veh SOX15 (11748057_x_at) / RFU CD79A (11719716_a_at) / Fold change /veh CD79A (11719716_a_at) / RFU HIST1H1D (11736915_at) / Fold change /veh HIST1H1D (11736915_at) / RFU CASKIN2 (11723855_a_at) / Fold change /veh CASKIN2 (11723855_a_at) / RFU LOC730098 (11760151_x_at) / Fold change /veh LOC730098 (11760151_x_at) / RFU OR4N2 (11742367_at) / Fold change /veh OR4N2 (11742367_at) / RFU PRRT2 (11749266_a_at) / Fold change /veh PRRT2 (11749266_a_at) / RFU SNX32 (11753110_a_at) / Fold change /veh SNX32 (11753110_a_at) / RFU CDHR5 (11726645_a_at) / Fold change /veh CDHR5 (11726645_a_at) / RFU RCAN1 (11760418_a_at) / Fold change /veh RCAN1 (11760418_a_at) / RFU FAM167A (11723789_a_at) / Fold change /veh FAM167A (11723789_a_at) / RFU FAM26E (11764081_at) / Fold change /veh FAM26E (11764081_at) / RFU ISYNA1 (11749810_s_at) / Fold change /veh ISYNA1 (11749810_s_at) / RFU ACY1 (11761880_at) / Fold change /veh ACY1 (11761880_at) / RFU 11764098_at / Fold change /veh 11764098_at / RFU SAMD14 (11745864_x_at) / Fold change /veh SAMD14 (11745864_x_at) / RFU NPB (11741838_a_at) / Fold change /veh NPB (11741838_a_at) / RFU TMPRSS6 (11731388_a_at) / Fold change /veh TMPRSS6 (11731388_a_at) / RFU KRTAP10-2 (11738614_at) / Fold change /veh KRTAP10-2 (11738614_at) / RFU ARHGAP8 /// PRR5-ARHGAP8 (11727945_x_at) / Fold change /veh ARHGAP8 /// PRR5-ARHGAP8 (11727945_x_at) / RFU KRTAP5-7 /// NADSYN1 (11734609_at) / Fold change /veh KRTAP5-7 /// NADSYN1 (11734609_at) / RFU RASL12 (11751679_a_at) / Fold change /veh RASL12 (11751679_a_at) / RFU CDKN2B (11736163_a_at) / Fold change /veh CDKN2B (11736163_a_at) / RFU PRF1 (11729649_at) / Fold change /veh PRF1 (11729649_at) / RFU, ZNF638 /// ZNF638-IT1 / Fold change vs veh, ZNF638 /// ZNF638-IT1 / RFU, PANK3 / Fold change vs veh, PANK3 / RFU, SH3YL1 / Fold change vs veh, SH3YL1 / RFU, ZEB2 / Fold change vs veh, ZEB2 / RFU, NRIP1 / Fold change vs veh, NRIP1 / RFU, PTTG1IP / Fold change vs veh, PTTG1IP / RFU, CAPN2 / Fold change vs veh, CAPN2 / RFU, MED14 / Fold change vs veh, MED14 / RFU, SNORA58 / Fold change vs veh, SNORA58 / RFU, C1orf63 / Fold change vs veh, C1orf63 / RFU, LRRFIP1 / Fold change vs veh, LRRFIP1 / RFU, NDUFAF7 / Fold change vs veh, NDUFAF7 / RFU, SLC12A2 / Fold change vs veh, SLC12A2 / RFU, IBTK / Fold change vs veh, IBTK / RFU, ESF1 / Fold change vs veh, ESF1 / Fold change vs veh, TMEM50B / RFU, TAOK1 / Fold change vs veh, TAOK1 / RFU, ACBD3 / Fold change vs veh, ACBD3 / RFU, TMA16 / Fold change vs veh, TMA16 / RFU, RWDD3 / Fold change vs veh, RWDD3 / RFU, BCAT1 / Fold change vs veh, BCAT1 / RFU, EDEM3 / Fold change vs veh, EDEM3 / RFU, TMEM33 / Fold change vs veh, TMEM33 / RFU, WDR75 / Fold change vs veh, WDR75 / RFU, AHCTF1 / Fold change vs veh, AHCTF1 / RFU, TFRC / Fold change vs veh, TFRC / RFU, ZDHHC17 / Fold change vs veh, ZDHHC17 / RFU, NOM1 / Fold change vs veh, NOM1 / RFU, ARL8B / Fold change vs veh, ARL8B / RFU, ZBTB11 / Fold change vs veh, ZBTB11 / RFU, TAMM41 / Fold change vs veh, TAMM41 / RFU, KIAA1704 /// LOC100996395 / Fold change vs veh, KIAA1704 /// LOC100996395 / RFU, ING1 / Fold change vs veh, ING1 / RFU, TRMT61B / Fold change vs veh, TRMT61B / RFU, FUBP3 / Fold change vs veh, FUBP3 / RFU, TP53 / Fold change vs veh, TP53 / RFU, TNKS2 / Fold change vs veh, TNKS2 / RFU, ZFP14 / Fold change vs veh, ZFP14 / RFU, ACTR2 / Fold change vs veh, ACTR2 / RFU, PPP3R1 / Fold change vs veh, PPP3R1 / RFU, PIK3R1 / Fold change vs veh, PIK3R1 / RFU, HNRNPA1 / Fold change vs veh, HNRNPA1 / RFU, RNF170 / Fold change vs veh, RNF170 / RFU, ZNF28 / Fold change vs veh, ZNF28 / RFU, RNGTT / Fold change vs veh, RNGTT / RFU, OGT / Fold change vs veh, OGT / RFU, BRD1 / Fold change vs veh, BRD1 / RFU, MARS / Fold change vs veh, MARS / RFU, ZNF655 / Fold change vs veh, ZNF655 / RFU, FAHD1 / Fold change vs veh, FAHD1 / RFU, BDP1 / Fold change vs veh, BDP1 / RFU, LRRCC1 / Fold change vs veh, LRRCC1 / RFU, ARID1A / Fold change vs veh, ARID1A / RFU, ZNF146 / Fold change vs veh, ZNF146 / RFU, ZNF330 / Fold change vs veh, ZNF330 / RFU, GPN3 / Fold change vs veh, GPN3 / RFU, C9orf123 / Fold change vs veh, C9orf123 / RFU, N4BP2L2 / Fold change vs veh, N4BP2L2 / RFU, ARFIP1 / Fold change vs veh, ARFIP1 / RFU, FAM179B / Fold change vs veh, FAM179B / RFU, BCL10 / Fold change vs veh, BCL10 / RFU, UHRF1BP1L / Fold change vs veh, UHRF1BP1L / RFU, BET1 / Fold change vs veh, BET1 / RFU, CNOT2 / Fold change vs veh, CNOT2 / RFU, ZNF268 / Fold change vs veh, ZNF268 / Fold change vs veh, ZNF507 / RFU, DGCR2 / Fold change vs veh, DGCR2 / RFU, WDSUB1 / Fold change vs veh, WDSUB1 / Fold change vs veh, HSP90B1 /// MIR3652 / RFU, ADSS / Fold change vs veh, ADSS / RFU, GK / Fold change vs veh, GK / RFU, ZNF148 / Fold change vs veh, ZNF148 / RFU, TAF9 / Fold change vs veh, TAF9 / RFU, SLC1A5 / Fold change vs veh, SLC1A5 / RFU, SLMO2 / Fold change vs veh, SLMO2 / RFU, ABCC4 / Fold change vs veh, ABCC4 / RFU, LOC101060439 /// RAP1B / Fold change vs veh, LOC101060439 /// RAP1B / RFU, RFX7 / Fold change vs veh, RFX7 / RFU, GTPBP10 / Fold change vs veh, GTPBP10 / RFU, CNEP1R1 / Fold change vs veh, CNEP1R1 / RFU, BIVM-ERCC5 /// ERCC5 / Fold change vs veh, BIVM-ERCC5 /// ERCC5 / RFU, ILF3 / Fold change vs veh, ILF3 / RFU 11762660_at / Fold change /veh 11762660_at / RFU VCAN (11757783_s_at) / Fold change /veh VCAN (11757783_s_at) / RFU DDX43 (11728927_at) / Fold change /veh DDX43 (11728927_at) / RFU KRT8 (11758188_x_at) / Fold change /veh KRT8 (11758188_x_at) / RFU NKD1 (11759106_at) / Fold change /veh NKD1 (11759106_at) / RFU SRD5A1 (11742802_a_at) / Fold change /veh SRD5A1 (11742802_a_at) / RFU TPSAB1 /// TPSB2 (11721975_s_at) / Fold change /veh TPSAB1 /// TPSB2 (11721975_s_at) / RFU GSTM3 (11746129_a_at) / Fold change /veh GSTM3 (11746129_a_at) / RFU IL23R (11737362_x_at) / Fold change /veh IL23R (11737362_x_at) / RFU TMEM51 (11727254_a_at) / Fold change /veh TMEM51 (11727254_a_at) / RFU PIWIL2 (11732686_x_at) / Fold change /veh PIWIL2 (11732686_x_at) / RFU ORM1 (11744905_x_at) / Fold change /veh ORM1 (11744905_x_at) / RFU CCDC152 (11743942_at) / Fold change /veh CCDC152 (11743942_at) / RFU ECM1 (11717891_a_at) / Fold change /veh ECM1 (11717891_a_at) / RFU IL23R (11748794_a_at) / Fold change /veh IL23R (11748794_a_at) / RFU TNFAIP8L3 (11732012_x_at) / Fold change /veh TNFAIP8L3 (11732012_x_at) / RFU MBOAT4 (11741988_at) / Fold change /veh MBOAT4 (11741988_at) / RFU 11764193_at / Fold change /veh 11764193_at / RFU TMEM53 (11763286_at) / Fold change /veh TMEM53 (11763286_at) / RFU MAGEB2 (11727129_at) / Fold change /veh MAGEB2 (11727129_at) / RFU TMEM200A (11744735_a_at) / Fold change /veh TMEM200A (11744735_a_at) / RFU CCDC152 (11751479_a_at) / Fold change /veh CCDC152 (11751479_a_at) / RFU FAM211A (11726209_a_at) / Fold change /veh FAM211A (11726209_a_at) / RFU RGS16 (11746705_a_at) / Fold change /veh RGS16 (11746705_a_at) / RFU VCAN (11755009_s_at) / Fold change /veh VCAN (11755009_s_at) / RFU RHOB (11743442_s_at) / Fold change /veh RHOB (11743442_s_at) / RFU RGS16 (11720943_a_at) / Fold change /veh RGS16 (11720943_a_at) / RFU RGS16 (11720944_at) / Fold change /veh RGS16 (11720944_at) / RFU, VPS4B / Fold change vs veh, VPS4B / RFU, CREB1 / Fold change vs veh, CREB1 / RFU, DNAJC13 / Fold change vs veh, DNAJC13 / RFU, GNAQ / Fold change vs veh, GNAQ / RFU, CDK5R1 / Fold change vs veh, CDK5R1 / RFU, ZRANB3 / Fold change vs veh, ZRANB3 / RFU, CUL4A / Fold change vs veh, CUL4A / RFU, CCNY / Fold change vs veh, CCNY / RFU, UFL1 / Fold change vs veh, UFL1 / RFU, COG3 / Fold change vs veh, COG3 / RFU, DIAPH2 / Fold change vs veh, DIAPH2 / RFU, SKA2 / Fold change vs veh, SKA2 / RFU, AFF3 / Fold change vs veh, AFF3 / RFU, LMF1 / Fold change vs veh, LMF1 / RFU, IPO11 / Fold change vs veh, IPO11 / RFU, DFFB / Fold change vs veh, DFFB / RFU, FOXP1 / Fold change vs veh, FOXP1 / RFU, CARD8 / Fold change vs veh, CARD8 / RFU, STRN3 / Fold change vs veh, STRN3 / RFU, ADK / Fold change vs veh, ADK / RFU, RASSF2 / Fold change vs veh, RASSF2 / RFU, WIPF1 / Fold change vs veh, WIPF1 / RFU, LARP1B / Fold change vs veh, LARP1B / RFU, RASA1 / Fold change vs veh, RASA1 / RFU, RB1 / Fold change vs veh, RB1 / RFU, PPFIA1 / Fold change vs veh, PPFIA1 / RFU, MAT2A / Fold change vs veh, MAT2A / RFU, CCT5 / Fold change vs veh, CCT5 / RFU, WDR92 / Fold change vs veh, WDR92 / RFU, CUX1 / Fold change vs veh, CUX1 / RFU, TTC7A / Fold change vs veh, TTC7A / RFU, TMEM135 / Fold change vs veh, TMEM135 / RFU, DEPTOR / Fold change vs veh, DEPTOR / RFU, CPM / Fold change vs veh, CPM / RFU, DNAJB6 / Fold change vs veh, DNAJB6 / RFU, CACNA2D3 / Fold change vs veh, CACNA2D3 / RFU, DTX4 / Fold change vs veh, DTX4 / RFU, TFCP2 / Fold change vs veh, TFCP2 / RFU, GMCL1 /// GMCL1P1 / Fold change vs veh, GMCL1 /// GMCL1P1 / RFU, AEBP2 / Fold change vs veh, AEBP2 / RFU, SNHG1 /// SNORD22 /// SNORD25 /// SNORD26 /// SNORD27 /// SNORD28 /// SNORD29 /// SNORD31 / Fold change vs veh, SNHG1 /// SNORD22 /// SNORD25 /// SNORD26 /// SNORD27 /// SNORD28 /// SNORD29 /// SNORD31 / Fold change (Aza/veh), C12orf56 (ProbeSet 11735607_a_at) / Fold change (ACY-1035/veh), C12orf56 (ProbeSet 11735607_a_at) / Fold change (Aza/veh), FGFR1OP (ProbeSet 11751329_s_at) / Fold change (ACY-1035/veh), FGFR1OP (ProbeSet 11751329_s_at) / Fold change (Aza/veh), VPS36 (ProbeSet 11739960_a_at) / Fold change (ACY-1035/veh), VPS36 (ProbeSet 11739960_a_at) / RFU SYPL1 (11715823_x_at) / Fold change /veh SYPL1 (11715823_x_at) / RFU IGFBP7 (11715501_s_at) / Fold change /veh IGFBP7 (11715501_s_at) / RFU REEP3 (11722064_at) / Fold change /veh REEP3 (11722064_at) / RFU IGLL1 (11728026_x_at) / Fold change /veh IGLL1 (11728026_x_at): dose or concentration left out as unconfirmed
Conditions: MV-4-11 cells, 48 hours

Structure (SMILES): Nc1ncn([C@@H]2O[C@H](CO)[C@@H](O)[C@H]2O)c(=O)n1 [azacitidine]
- RFU LRRC4B (11730491_at): 28.29 RFU
